Measured values reported in PMC5756575, “In Vitro Biotransformation, Safety, and Chemopreventive Action of Novel 8-Methoxy-Purine-2,6-Dione Derivatives” (Applied Biochemistry and Biotechnology, 2017).
Like-named read-outs stand apart in the source and are kept apart here.

Columns and labels:
Vibrio harveyi BB7 [1] = conditions: BB7, 40 ng/mL; for MI (mutagenicity index): mutagenic if MI above 2.0; for Number of revertants per plate, Mean ± SD: mutagenicity
Method: (§1) From them, 0.2 mM working solutions were prepared by dilution with water. […] Working solutions were prepared by 1:100 dilution of stock solution in water, and final compound concentration assayed was 40 ng/mL.
(§2) Four Vibrio harveyi strains were used in this study: a wild-type BB7 (naturally found in the Baltic Sea) and three genetically modified strains, namely BB7M (obtained by the introduction of pAB1273 plasmid containing the genes mucA and mucB to enhance the error-prone DNA repair), BB7X (hypersensitive to UV radiation after genetic modification with Tn5TpMCS), and BB7XM (containing the two abovementioned modifications). These strains were kindly provided by Prof. G. Węgrzyn (Department of Molecular Biology, University of Gdańsk, Poland).
(§3) It causes point mutations at the genome as it induces G:C → A:T transitions in Vibrio harveyi strains and in other bacteria such as Escherichia coli and S. typhimurium. […] Next, its working solution was prepared in sterile water, being 40 ng/mL its final concentration.
(§4) To perform the V. harveyi mutagenicity test, 10 μL of a working solution of the tested compound (100 μg/mL) were added to V. harveyi bacterial culture (OD600 = 0.1) in NaCl-containing BOSS liquid medium, being 40 ng/mL the final concentration of the tested compound. […] Then, an inoculum containing 5 × 10^6 cells was added to solid BOSS agar plate supplemented with neomycin sulfate at a final concentration of 100 μg/mL. Samples were left incubating 48 h at 30 °C, and revertant colonies were counted manually.

Vibrio harveyi BB7X [2] = conditions: 40 ng/mL; for MI (mutagenicity index): mutagenic if MI above 2.0; for Number of revertants per plate, Mean ± SD: mutagenicity
Method: as §1, §2, §3, §4

Vibrio harveyi BB7M = conditions: 40 ng/mL; for Number of revertants per plate, Mean ± SD: mutagenicity
Method: as §1, §2, §3, §4

Vibrio harveyi BB7 [3] = experiment: Vibrio harveyi antimutagenicity assay against NQNO, BB7; type: cell-based; conditions: for % inhibition of NQNO mutagenicity / Number of revertants per plate, Mean ± SD: BB7, compound 40 ng/mL + NQNO 40 ng/mL; for Number of revertants per plate, Mean ± SD: antimutagenicity, NQNO line = NQNO as a single compound; for chemopreventive (antimutagenic) effect, class: wild BB7 strain, against NQNO
Description: as §2, §3
(§5) Procedure followed in the V. harveyi antimutagenicity assay was similar to the mutagenicity method described before. […] The results were expressed as the inhibition percentage of mutagenic effect, which was calculated with the formula: 100 − [(R 1/R 2) × 100], where R 1 is the number of revertants per plate in the presence of both mutagen and tested substance, and R 2 is the number of revertants per plate in the presence of mutagen. […] S. typhimurium antimutagenicity assay was based on similar assumptions as the V. harveyi antimutagenicity test. In this case, the chemopreventive activity was determined at two concentrations of a tested compounds and a standard mutagen, i.e., 40 and 500 ng/mL.

Vibrio harveyi BB7X [4] = experiment: Vibrio harveyi antimutagenicity assay against NQNO, BB7X; type: cell-based; conditions: compound 40 ng/mL + NQNO 40 ng/mL; for Number of revertants per plate, Mean ± SD: antimutagenicity, NQNO line = NQNO as a single compound
Description: as §2, §3, §5

rat liver microsomes = experiment: Microsomal stability assay; type: in vitro ADME; conditions: 97.88 versus 302.00 μL/min/mg
Method: (§6) Compounds 1 and 3 were studied in a biotransformation assay using rat liver microsomes following procedures described previously. The reagents used in this assay were levallorphan (internal standard) and NADPH-regenerating system, which contained phosphate buffer (pH 7.4), NADP^+, glucose-6-phosphate, and glucose-6-phosphate dehydrogenase. The final protein concentration in the assay was 0.4 mg/mL. Compounds 1 and 3 were tested at a final concentration of 20 μM.
(§7) The amount of a parental compound remaining in a solution after biotransformation was monitored using LC-MS/MS as described previously in “Cunninghamella Biotransformation Assay.” Graphs representing ln of percentage of parent compound remaining versus incubation time were drawn to calculate in vitro half-time (t1/2) from the slope of linear regression. To obtain intrinsic clearance (Clint) of a tested compound in rat liver microsomal assay, t1/2 previously calculated was substituted at the equation Clint = [(Vmic/Pmic) × 0.693/t1/2], being Vmic and Pmic the volume of incubation in microliters and the amount of incubated protein in milligrams, respectively.
(§8) Agilent 1100 HPLC system (Agilent Technologies, Waldbronn, Germany) equipped with a Xbridge™ C18 analytical column (2.1 × 30 mm, […]; Waters, Dublin, Ireland) was used in the chromatographic separation of LC-MS/MS analysis. An elution gradient of acetonitrile and water, with 0.1% of formic acid, was used as a mobile phase. MS spectra were taken at Applied Biosystems MDS Sciex API 200 triple quadrupole mass analyzer (Concord, Ontario, Canada) with an electrospray ionization (ESI) interface between HPLC and MS.

[5] = Microsomal stability assay; type: in vitro ADME, rat; conditions: pH 7.4, rat liver microsomes, 20 μM, 0.4 mg/mL protein
Method: as §6, §7, §8

[6] = test system: Cunninghamella blakesleeana 1908 DMS; experiment: Cunninghamella biotransformation assay, C. blakesleeana; type: in vitro ADME; conditions: 7-day incubation; for % of compound/metabolite in C. blakesleeana: 0.5 mg/mL, LC-MS/MS; for % of tested (parental) compound metabolized at the end of experiment: C. blakesleeana
Method: Three different strains of Cunninghamella were used: Cunninghamella echinulata NRRL 1384, Cunninghamella blakesleeana 1908 DMS, and Cunninghamella elegans 1906 DMS. The first was provided by Dr. A.J. Carnell (University of Liverpool, UK), whereas the two remaining were purchased from Deutsche Sammlung von Mikroorganismen und Zellkulturen GmbH (DMSZ, Braunschweig, Germany).
Cunninghamella strains were cultivated on solid potato dextrose agar (PDA) plates at 28 °C. After 4 days, a liquid fermentation basal medium was prepared by the addition of 6 g of D-glucose, 1.5 g of NaCl, 1.5 g of yeast extract from Saccharomyces cerevisiae, and 1.5 g of K2HPO4 to 300 mL of distilled water. Aliquots of 24.5 mL of medium were inoculated with 300 μL of suspension of fungal spores obtained after wetting colonies in PDA. The fungi were incubated with shaking until the formation of spherical clumps.
Compounds 2–4 were evaluated in this experiment. Once microorganisms formed spherical clumps in the preliminary incubation, the corresponding tested compound was added to the broth and the mixture was incubated for 7 days. Two control experiments were also performed, in the absence of compound and fungus, respectively. Biotransformation progress was monitored by TLC and by liquid chromatography electrospray ionization-tandem mass spectrometry (LC-MS/MS). Monitoring was performed at four different incubation times: 30 min, 3 days, 5 days, and 7 days.
To analyze metabolites in LC-MS/MS, an aliquot of 500 μL of filtered sample was taken and extracted with 500 μL of dichloromethane. The organic fraction was dried with sodium sulfate, filtered, and evaporated. The obtained residue was analyzed in LC-MS/MS. At the end of experiment, all the remaining medium was extracted with 25 mL of dichloromethane after separating the fungal clumps by filtration over cellulose filters.
as §8

Vibrio harveyi BB7XM = type: cell-based; conditions: compound 40 ng/mL + NQNO 40 ng/mL; for Number of revertants per plate, Mean ± SD: antimutagenicity, NQNO line = NQNO as a single compound
Description: as §2, §3, §5

COc1nc2c(c(=O)n(C)c(=O)n2C)n1CCCC(=O)NCc1ccccc1 [Compound 3, N-benzyl-4-(8-methoxy-1,3-dimethyl-2,6-dioxo-purin-7-yl)butanamide]
MI (mutagenicity index) (Vibrio harveyi BB7 [1]): 1.4 | Number of revertants per plate, Mean ± SD (Vibrio harveyi BB7 [1]): 18 ± 6 | MI (mutagenicity index) (Vibrio harveyi BB7X [2]): 1.6 | Number of revertants per plate, Mean ± SD (Vibrio harveyi BB7X [2]): 35 ± 4 | MI (mutagenicity index) (Vibrio harveyi BB7M; mutagenic if MI above 2.0): 1.3 | Number of revertants per plate, Mean ± SD (Vibrio harveyi BB7M): 35 ± 5 | % inhibition of NQNO mutagenicity (Vibrio harveyi BB7 [3]): 29% | Number of revertants per plate, Mean ± SD (Vibrio harveyi BB7 [3]): 38 ± 9 | chemopreventive (antimutagenic) effect, class (Vibrio harveyi BB7 [3]): moderate or a close to moderate | Number of revertants per plate, Mean ± SD (Vibrio harveyi BB7X [4]): 45 ± 9 | % inhibition of NQNO mutagenicity (Vibrio harveyi BB7X [4]): 58% | Clint, fold lower than imipramine (rat liver microsomes): 3.09 fold | half-life at 20 μM ([5]; read-out: in vitro half-time (t1/2)): 17.7 min | microsomal CLint at 20 μM ([5]; read-out: intrinsic clearance (Clint)): 97.9 µL/min/mg | % of compound/metabolite in C. blakesleeana [6]: 95.4% | % of tested (parental) compound metabolized at the end of experiment [6]: 4.6% | Number of revertants per plate, Mean ± SD (Vibrio harveyi BB7XM): 65 ± 7 | % inhibition of NQNO mutagenicity (Vibrio harveyi BB7XM): 15%

COc1nc2c(c(=O)n(C)c(=O)n2C)n1CCCC(=O)N1CCN(c2ccccc2)CC1 [Compound 4, 8-methoxy-1,3-dimethyl-7-[4-oxo-4-(4-phenylpiperazin-1-yl)butyl]purine-2,6-dione]
MI (mutagenicity index) (Vibrio harveyi BB7 [1]): 0.8 | Number of revertants per plate, Mean ± SD (Vibrio harveyi BB7 [1]): 10 ± 4 | MI (mutagenicity index) (Vibrio harveyi BB7X [2]): 1.2 | Number of revertants per plate, Mean ± SD (Vibrio harveyi BB7X [2]): 27 ± 7 | Number of revertants per plate, Mean ± SD (Vibrio harveyi BB7M): 42 ± 11 | % inhibition of NQNO mutagenicity (Vibrio harveyi BB7 [3]): 53% | Number of revertants per plate, Mean ± SD (Vibrio harveyi BB7 [3]): 26 ± 6 | chemopreventive (antimutagenic) effect, class (Vibrio harveyi BB7 [3]): strong (higher than 40%) | Number of revertants per plate, Mean ± SD (Vibrio harveyi BB7X [4]): 47 ± 10 | % inhibition of NQNO mutagenicity (Vibrio harveyi BB7X [4]): 56% | % of compound/metabolite in C. blakesleeana [6]: 33.3% | % of tested (parental) compound metabolized at the end of experiment [6]: 66.6% | Number of revertants per plate, Mean ± SD (Vibrio harveyi BB7XM): 70 ± 7 | % inhibition of NQNO mutagenicity (Vibrio harveyi BB7XM): 9%
